According to patent US8431593B2, “Heteroaryl amide derivatives” (H. Lundbeck A/S, priority 2006, dated 2013):
Where two headings read alike, the source gives them in different places. One block for each compound: values may come before it.

Target: T1, P2X7 receptor (Homo sapiens, UniProt Q99572)
T1 construct: host or cells: SH-SY5Y
T1 sequence (Q99572 1-595): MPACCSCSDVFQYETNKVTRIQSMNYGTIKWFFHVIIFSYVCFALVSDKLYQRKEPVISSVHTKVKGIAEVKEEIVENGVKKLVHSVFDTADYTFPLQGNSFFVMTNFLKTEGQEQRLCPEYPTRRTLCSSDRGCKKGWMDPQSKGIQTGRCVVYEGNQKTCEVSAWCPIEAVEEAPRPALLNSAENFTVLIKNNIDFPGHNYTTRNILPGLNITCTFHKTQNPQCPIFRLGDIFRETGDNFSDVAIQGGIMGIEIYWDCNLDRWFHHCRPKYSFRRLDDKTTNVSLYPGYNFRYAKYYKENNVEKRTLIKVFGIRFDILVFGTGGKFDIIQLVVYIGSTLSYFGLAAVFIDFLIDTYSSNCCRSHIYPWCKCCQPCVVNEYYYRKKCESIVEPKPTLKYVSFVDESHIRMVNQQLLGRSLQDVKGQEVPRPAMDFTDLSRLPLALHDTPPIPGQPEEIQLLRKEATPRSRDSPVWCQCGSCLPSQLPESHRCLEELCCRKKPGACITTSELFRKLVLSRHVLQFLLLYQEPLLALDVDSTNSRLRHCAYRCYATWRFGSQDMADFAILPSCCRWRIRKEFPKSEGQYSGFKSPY
Experiment: P2X7 calcium mobilization assay, high throughput, antagonist activity (Example 4A)
Format: cell-based
Method in brief: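 Antagonism was measured as calcium fluorescence (FLIPR Tetra) in cells seeded one day earlier at 100,000/well, loaded with dye for 1 h and exposed to compound for 1 h at room temperature before agonist. Peak RFU, minus the no-agonist background, was referenced to the mean of the agonist wells.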

[1] = SH-SY5Y cells, 50% decrease in fluorescence response to 80 μM BzATP, read-out: IC50
[2] = fluorescence response of cells exposed to 80 μM 2′(3′)-O-(4-benzoyl-benzoyl)adenosine 5′-triphosphate, Example 4A, read-out: IC50
[3] = 50% decrease in the fluorescence response of cells exposed to 80 μM of 2′(3′)-O-(4-benzoyl-benzoyl)adenosine 5′-triphosphate, Example 4A, read-out: IC50
[4] = 50% decrease in the fluorescence response of cells exposed to 80 μM 2′(3′)-O-(4-benzoyl-benzoyl)adenosine 5′-triphosphate, Example 4A, read-out: IC50
[5] = P2X7 calcium mobilization, Example 4A, 50% decrease in the fluorescence response of cells exposed to 80 μM of (2′(3′)-O-(4-benzoyl-benzoyl)adenosine 5′-triphosephate), read-out: IC50

IC50 [1]: < 2000 nM
Compound: O=C(NCC12CC3CC(CC(C3)C1)C2)c1cccc2nc(C(=O)N3CCCC(O)C3)cn12 (stereo not shown) [Compound 105, N-(adamantan-1-ylmethyl)-2-[(3-hydroxypiperidin-1-yl)carbonyl]imidazo[1,2-a]pyridine-5-carboxamide]

IC50 [2]: < 2000 nM
Compound: Cc1cc(-c2cn3c(C(=O)NCC45CC6CC(CC(C6)C4)C5)cccc3n2)n(CC(=O)O)n1 [Compound 347, (5-{5-[(adamantan-1-ylmethyl)carbamoyl]imidazo[1,2-a]pyridin-2-yl}-3-methyl-1H-pyrazol-1-yl)acetic acid]

IC50 [3]: < 2000 nM
Compound: COCCN(C(=O)c1cn2c(C(=O)NCC34CC5CC(CC(C5)C3)C4)cccc2n1)C1CCNCC1 [Compound 618, 5-N-(adamantan-1-ylmethyl)-2-N-(2-methoxyethyl)-2-N-piperidin-4-yl imidazo[1,2-a]pyridine-2,5-dicarboxamide]

Compound: C[C@@H](CO)NCc1cn2c(C(=O)NCC34CC5CC(CC(C5)C3)C4)cccc2n1 [Compound 66, N-(adamantan-1-ylmethyl)-2-({[(1S)-2-hydroxy-1-methylethyl]amino}methyl)imi-dazo[1,2-a]pyridine-5-carboxamide]
IC50: < 2000 nM

IC50 [3]: < 2000 nM
Compound: CC(C)CC(CNC(=O)c1cccc2nc(CN3CC[C@@H](N)C3)cn12)c1ccc(C(F)(F)F)cc1 (stereo in doubt) [Compound 763, 2-[(3-aminopyrrolidin-1-yl)methyl]-N-{4-methyl-2-[4-(trifluoromethyl)phenyl]pentyl}imidazo [1,2-a] pyridine-5-carboxamide]

Compound: C[C@H](O)CNC(=O)Cc1cn2c(C(=O)NCC34CC5CC(CC(C5)C3)C4)cccc2n1 [Compound 29, N-(adamantan-1-ylmethyl)-2-(2-{[(2S)-2-hydroxy-propyl]amino}-2-oxoethyl)imi-dazo[1,2-a]pyridine-5-carboxamide]
IC50: < 2000 nM

IC50 [3]: < 2000 nM
Compound: CC(Cc1nnn[nH]1)c1cn2c(C(=O)NCC34CC5CC(CC(C5)C3)C4)cccc2n1 (stereo not shown) [Compound 781, N-(adamantan-1-ylmethyl)-2-[1-methyl-2-(1H-tetrazol-5-yl)ethyl] imidazo[1,2-a] pyridine-5-carboxamide]

IC50 [3]: < 2000 nM
Compound: NC1CCN(C(=O)c2cn3c(C(=O)NCC45CC6CC(CC(C6)C4)C5)cccc3n2)C1 (stereo not shown) [Compound 625, N-(adamantan-1-ylmethyl)-2-[(3-aminopyrrolidin-1-yl)carbonyl] imidazo[1,2-a]pyridine-5-carboxamide]

IC50 [4]: < 2000 nM
Compound: O=C(NCC12CC3CC(CC(C3)C1)C2)c1cccc2nc(C(=O)N3C[C@@H]4C[C@H]3CN4)cn12 [Compound 609, N-(adamantan-1-ylmethyl)-2-[(1S,4S)-2,5-diazabicyclo [2.2.1]hept-2-ylcarbonyl]imidazo[1,2-a]pyridine-5-carboxamide]

IC50 [3]: < 2000 nM
Compound: CNC1CCN(C(=O)Cc2cn3c(C(=O)NCC45CC6CC(CC(C6)C4)C5)cccc3n2)C1 (stereo not shown) [Compound 690, N-(adamantan-1-ylmethyl)-2-{2-[3-(methylamino)pyrrolidin-1-yl]-2-oxoethyl}imidazo[1,2-a]pyridine-5-carboxamide]

IC50 [5]: < 2000 nM
Compound: O=C(NCC(c1ccc(Cl)cc1)N1CCCCC1)c1cccc2ncc(Cl)n12 (stereo not shown) [Compound 1054, 3-chloro-N-[2-(4-chlorophenyl)-2-piperidin-1-ylethyl]imidazo[1,2-a]pyridine-5-carboxamide]

IC50 [3]: < 2000 nM
Compound: CN1C2CCC1CC(NC(=O)c1cn3c(C(=O)NCC45CC6CC(CC(C6)C4)C5)cccc3n1)C2 (stereo not shown) [Compound 667, 5-N-(adamantan-1-ylmethyl)-2-N-(8-methyl-8-azabicyclo[3.2.1]oct-3-yl)imidazo[1,2-a]pyridine-2,5-dicarboxamide]

IC50 [3]: < 2000 nM
Compound: CC(C)NCCSCc1cn2c(C(=O)NCC34CC5CC(CC(C5)C3)C4)cccc2n1 [Compound 757, N-(adamantan-1-ylmethyl)-2-({[2-(isopropylamino)ethyl]thio}methyl) imidazo[1,2-a] pyridine-5-carboxamide]

IC50 [1]: < 2000 nM
Compound: CC(C)[C@H](CO)NC(=O)Cc1cn2c(C(=O)NCC34CC5CC(CC(C5)C3)C4)cccc2n1 [Compound 32, N-(adamantan-1-ylmethyl)-2-(2-{[(1R)-1-(hydroxymethyl)-2-methylpropyl]amino}-2-oxoethyl)imidazo[1,2-a]pyridine-5-carboxamide]

IC50 [4]: < 2000 nM
Compound: CC1(C)[C@@H]2CC[C@@H](CNC(=O)c3cccc4nc(CC(=O)NC5CCNC5)cn34)[C@H]1C2 (stereo partly drawn) [Compound 591, N-{[(1R,2R,5R)-6,6-dimethylbicyclo[3.1.1]hept-2-yl]methyl}-2-[2-oxo-2-(pyrrolidin-3-ylamino)ethyl]imidazo [1,2-a]pyridine-5-carboxamide]

IC50 [3]: < 2000 nM
Compound: O=C(NCC12CC3CC(CC(C3)C1)C2)c1cccc2nc(C(=O)N3CCCC(C(=O)NCCCO)C3)cn12 (stereo not shown) [Compound 694, N-(adamantan-1-ylmethyl)-2-({3-[(3-hydroxypropyl)carbamoyl]piperidin-1-yl}carbonyl) imidazo[1,2-a]pyridine-5-carboxamide]

Compound: O=C(NCC12CC3CC(CC(C3)C1)C2)c1cccc2nc(CNCCO)cn12 [Compound 65, N-(adamantan-1-ylmethyl)-2-{[(2-hydroxy-ethyl)amino]methyl}imi-dazo[1,2-a]pyridine-5-carboxamide]
IC50: < 2000 nM

IC50 [2]: < 2000 nM
Compound: O=C(CC12CC3CC(CC(C3)C1)C2)Nc1cccc2nc(C(=O)N3CCCCC3)cn12 [Compound 357, 2-adamantan-1-yl-N-[2-(piperidin-1-ylcarbonyl)imidazo [1,2-a]pyridin-5-yl]acetamide]

IC50 (50% decrease in the fluorescence response of cells exposed to 80 μM of 2′(3′)-O-(4-benzoyl-benzoyl)adenosine 5′-triphosphate, determined as in Example 4A, read-out: IC50): < 2000 nM
Compound: O=C(NCC1(c2ccc(Cl)cc2)CCCCC1)c1cccc2nc(C(Cc3ccc(Cl)cc3)C(=O)O)cn12 (stereo not shown) [Compound 935, 3-(4-chlorophenyl)-2-[5-({[1-(4-chlorophenyl)cyclohexyl]methyl}carbamoyl)imidazo[1,2-a]pyridin-2-yl] propanoic acid]

IC50 [5]: < 2000 nM
Compound: COc1ccc(C2(CNC(=O)c3cccc4nc(C(F)(F)F)cn34)CCCCC2)cc1 [Compound 1026, N-{[1-(4-methoxyphenyl)cyclohexyl]methyl}-2-(trifluoromethyl) imidazo [1,2-a]pyridine-5-carboxamide]

Compound: O=C(NCC12CC3CC(CC(C3)C1)C2)c1cccc2nc(CN3CCN(CCO)CC3)cn12 [Compound 13, N-(adamantan-1-ylmethyl)-2-{[4-(2-hydroxyethyl)piperazin-1-yl]methyl}imi-dazo[1,2-a]pyridine-5-carboxamide]
IC50: < 2000 nM

IC50 [3]: < 2000 nM
Compound: CC(C)c1ccc(CN(C)C(=O)c2cn3c(C(=O)NCC45CC6CC(CC(C6)C4)C5)cccc3n2)cn1 [Compound 717, 5-N-(adamantan-1-ylmethyl)-2-N-[(6-isopropylpyridin-3-yl)methyl]-2-N-methylimidazo[1,2-a]pyridine-2,5-dicarboxamide]

IC50 [1]: < 2000 nM
Compound: CC(=O)NCCNCc1cn2c(C(=O)NCC34CC5CC(CC(C5)C3)C4)cccc2n1 [Compound 67, 2-{[(2-acetamido-ethyl)amino]methyl}-N-(adamantan-1-ylmethyl)imidazo[1,2-a]pyridine-5-carboxamide]

IC50 [1]: < 2000 nM
Compound: CC1(O)CCN(C(=O)Cc2cn3c(C(=O)NCC45CC6CC(CC(C6)C4)C5)cccc3n2)CC1 [Compound 56, N-(adamantan-1-ylmethyl)-2-[2-(4-hydroxy-4-methylpiperidin-1-yl)-2-oxoethyl]imidazo[1,2-a]pyridine-5-carboxamide]

IC50 [2]: < 2000 nM
Compound: O=C(NCC12CC3CC(CC(C3)C1)C2)c1cccc2nc(CS(=O)(=O)CCO)cn12 [Compound 267, N-(adamantan-1-ylmethyl)-2-{[(2-hydroxyethyl)sulfonyl]methyl}imidazo[1,2-a]pyridine-5-carboxamide]

IC50 [4]: < 2000 nM
Compound: CCN(CC)C(=O)C1CCCN(C(=O)c2cn3c(C(=O)NC[C@@H]4CC[C@H]5C[C@@H]4C5(C)C)cccc3n2)C1 (stereo partly drawn) [Compound 456, 2-{[3-(diethylcarbamoyl)piperidin-1-yl]carbonyl}-N-{[(1S,2R,5S)-6,6-dimethylbicyclo[3.1.1]hept-2-yl]methyl}imidazo[1,2-a]pyridine-5-carboxamide]

IC50 [4]: < 2000 nM
Compound: CC(C)[C@@H]1CN(C(=O)Cc2cn3c(C(=O)NC[C@@H]4CC[C@@H]5C[C@H]4C5(C)C)cccc3n2)CCN1 [Compound 571, N-{[(1R,2R,5R)-6,6-dimethylbicyclo[3.1.1]hept-2-yl]methyl}-2-{2-[(3R)-3-isopropylpiperazin-1-yl]-2-oxoethyl}imidazo[1,2-a]pyridine-5-carboxamide]

Compound: NCCCNCc1cn2c(C(=O)NCC34CC5CC(CC(C5)C3)C4)cccc2n1 [Compound 123, N-(adamantan-1-ylmethyl)-2-{[(3-aminopropyl)amino]methyl}imi-dazo[1,2-a]pyridine-5-carboxamide]
IC50: < 2000 nM
